Consider one compound from patent US20030162815A1, “Thiazolidinedione salt for treatment of diabetes mellitus” (priority 2003, published 2003).

The solubility is the concentration that dissolves in the medium under given conditions. Read a high solubility as a readily soluble substance.

Holding throughout (type): physicochemical
The nature of series [1]: Solid state stability of the Hydrobromide (storage for 1 month, HPLC assay for final content and degradation products). As to conditions: product of Example 3.
Protocol: The solid state stability of the drug substance was determined by storing approximately 1.0 g of the material in a glass bottle at i) 40° C./75% Relative Humidity (RH), open exposure, for 1 month and b) at 50° C., closed, for 1 month. The material was assayed by HPLC for final content and degradation products in both cases.
Series [2] can be described thus: Solubility of the Hydrobromide in water (visual, confirmed by HPLC assay of a saturated solution). Conditions: thermodynamic from solid, product of Example 3.
Description: The visual solubility was confirmed by an HPLC assay of a saturated solution.
Series [3] can be described thus: Flow properties of the Hydrobromide (Hausner Ratio, bulk density vs tapped bulk density). As to conditions: ratio between bulk density and tapped bulk density; product of Example 3. How it is done:
The ratio between the bulk density and the tapped bulk density (Hausner Ratio) of the Hydrobromide was determined using standard methods (“Pharmaceutics—The Science of Dosage Form Design”, editor M. Aulton, 1988, published by: Churchill Livingstone).

Each structure is given as a SMILES string.

As to `Br.CN(CCOc1ccc(CC2SC(=O)NC2=O)cc1)c1ccccn1` (stereo not drawn) [Hydrobromide, 5-[4-[2-(N-methyl-N-(2-pyridyl)amino)ethoxy]benzyl]thiazolidine-2,4-dione hydrobromide], in series [1] (40° C./75% RH, open exposure), the “Solid state stability: HPLC assay” value worked out at 98 % initial and the “Solid state stability: degradation” value is given as “No significant degradation observed”. Moreover, in series [1] (50° C., closed), the “Solid state stability: HPLC assay” value is given as 98 % initial and the “Solid state stability: degradation” value is recorded as “No significant degradation observed”. In series [2], the solubility came out at 6000 µg/mL. Besides, the “Hausner Ratio” value in series [3] is 1.3.
